# Test: in vitro
# Details: for Concentration (μM) of analyte PEA, 0 min / Concentration (μM) of analyte PEA, 10 min / Concentration (μM) of analyte PEA, 20 min / Concentration (μM) of analyte PEA, 30 min / Concentration (μM) of analyte PEA, 60 min / % Remaining of Initial (n = 1), 0 min / % Remaining of Initial (n = 1), 10 min / % Remaining of Initial (n = 1), 20 min / % Remaining of Initial (n = 1), 30 min / % Remaining of Initial (n = 1), 60 min / Concentration, analyte PEA / % Remaining of Initial (n = 1): 1 μM
# Procedure, shortened: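 Incubations ran at 37° C in S9 with 1 μM test article, started by cofactor cocktail, sampled at 0, 10, 20, 30, 60 min and stopped with cold acidified acetonitrile.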
# [1] = male, Sprague-Dawley, rat, 0 min
# [2] = male, Sprague-Dawley, rat, 10 min
# [3] = male, Sprague-Dawley, rat, 20 min
# [4] = male, Sprague-Dawley, rat, 30 min
# [5] = male, Sprague-Dawley, rat, 60 min
# [6] = male, Sprague-Dawley, rat, s9, 0 h
# [7] = male, Sprague-Dawley, rat, s9, 10 min
# [8] = male, Sprague-Dawley, rat, s9, 20 min
# [9] = male, Sprague-Dawley, rat, s9, 0.5 h
# [10] = male, Sprague-Dawley, rat, s9, 1 h
smiles,measurement,setting,value
CCCCCCCCCCCCCCCC(=O)NCCOC(=O)CCC(=O)OCC(COC(=O)CCC)OC(=O)CCC (stereo not shown) [Compound I-11],"Concentration (μM) of analyte PEA, 0 min","both, human, 0 min",0.047 µM
same,"Concentration (μM) of analyte PEA, 10 min","both, human, 10 min",0.25 µM
same,"Concentration (μM) of analyte PEA, 20 min","both, human, 20 min",0.18 µM
same,"Concentration (μM) of analyte PEA, 30 min","both, human, 30 min",0.14 µM
same,"Concentration (μM) of analyte PEA, 60 min","both, human, 60 min",0.033 µM
same,"% Remaining of Initial (n = 1), 0 min","both, human, s9, 0 h",100%
same,"% Remaining of Initial (n = 1), 10 min","both, human, s9, 10 min",2.8%
same,"% Remaining of Initial (n = 1), 20 min","both, human, s9, 20 min",<1.0%
same,"% Remaining of Initial (n = 1), 30 min","both, human, s9, 0.5 h",<1.0%
same,"% Remaining of Initial (n = 1), 60 min","both, human, s9, 1 h",<1.0%
same,"Concentration (μM) of analyte PEA, 0 min","male, Beagle, dog, 0 min",0.069 µM
same,"Concentration (μM) of analyte PEA, 10 min","male, Beagle, dog, 10 min",0.51 µM
same,"Concentration (μM) of analyte PEA, 20 min","male, Beagle, dog, 20 min",0.34 µM
same,"Concentration (μM) of analyte PEA, 30 min","male, Beagle, dog, 30 min",0.29 µM
same,"Concentration (μM) of analyte PEA, 60 min","male, Beagle, dog, 60 min",0.13 µM
same,"% Remaining of Initial (n = 1), 0 min","male, Beagle, dog, s9, 0 h",100%
same,"% Remaining of Initial (n = 1), 10 min","male, Beagle, dog, s9, 10 min",4.6%
same,"% Remaining of Initial (n = 1), 20 min","male, Beagle, dog, s9, 20 min",1.6%
same,"% Remaining of Initial (n = 1), 30 min","male, Beagle, dog, s9, 0.5 h",<1.0%
same,"% Remaining of Initial (n = 1), 60 min","male, Beagle, dog, s9, 1 h",<1.0%
same,"Concentration (μM) of analyte PEA, 0 min","male, CD-1, mouse, 0 min",0.18 µM
same,"Concentration (μM) of analyte PEA, 10 min","male, CD-1, mouse, 10 min",0.24 µM
same,"Concentration (μM) of analyte PEA, 20 min","male, CD-1, mouse, 20 min",0.13 µM
same,"Concentration (μM) of analyte PEA, 30 min","male, CD-1, mouse, 30 min",0.083 µM
same,"Concentration (μM) of analyte PEA, 60 min","male, CD-1, mouse, 60 min",0.015 µM
same,"% Remaining of Initial (n = 1), 0 min","male, CD-1, mouse, s9, 0 h",100%
same,"% Remaining of Initial (n = 1), 10 min","male, CD-1, mouse, s9, 10 min",<1.0%
same,"% Remaining of Initial (n = 1), 20 min","male, CD-1, mouse, s9, 20 min",<1.0%
same,"% Remaining of Initial (n = 1), 30 min","male, CD-1, mouse, s9, 0.5 h",<1.0%
same,"% Remaining of Initial (n = 1), 60 min","male, CD-1, mouse, s9, 1 h",<1.0%
same,half-life at 1 μM,"male, CD-1, mouse, s9, Half-life (min)",< 1 min
same,"Concentration (μM) of analyte PEA, 0 min",[1],0 µM
same,"Concentration (μM) of analyte PEA, 10 min",[2],0.14 µM
same,"Concentration (μM) of analyte PEA, 20 min",[3],0.091 µM
same,"Concentration (μM) of analyte PEA, 30 min",[4],0.059 µM
same,"Concentration (μM) of analyte PEA, 60 min",[5],0.0062 µM
same,"% Remaining of Initial (n = 1), 0 min",[6],100%
same,"% Remaining of Initial (n = 1), 10 min",[7],<1.0%
same,"% Remaining of Initial (n = 1), 20 min",[8],<1.0%
same,"% Remaining of Initial (n = 1), 30 min",[9],<1.0%
same,"% Remaining of Initial (n = 1), 60 min",[10],<1.0%
same,half-life at 1 μM,"male, Sprague-Dawley, rat, s9, Half-life (min)",< 1 min
CCCCC/C=C\C/C=C\CCCCCCCC(=O)OCC(COC(=O)CCC(=O)OCCNC(=O)CCCCCCCCCCCCCCC)OC(=O)CCCCCCC/C=C\C/C=C\CCCCC (stereo not shown) [Compound I-13],"Concentration, analyte PEA","both, human, 0 min",0 nM
same,"Concentration, analyte PEA","both, human, 10 min",0 nM
same,"Concentration, analyte PEA","both, human, 20 min",0 nM
same,"Concentration, analyte PEA","both, human, 30 min",0 nM
same,"Concentration, analyte PEA","both, human, 60 min",0 nM
same,% Remaining of Initial (n = 1),"both, human, s9, 0 h",100%
same,% Remaining of Initial (n = 1),"both, human, s9, 10 min",93%
same,% Remaining of Initial (n = 1),"both, human, s9, 20 min",87%
same,% Remaining of Initial (n = 1),"both, human, s9, 0.5 h",78%
same,% Remaining of Initial (n = 1),"both, human, s9, 1 h",45%
same,half-life at 1 μM,"both, human, s9, Half-life",58 min
same,"Concentration, analyte PEA","male, Beagle, dog, 0 min",15 nM
same,"Concentration, analyte PEA","male, Beagle, dog, 10 min",25 nM
same,"Concentration, analyte PEA","male, Beagle, dog, 20 min",20 nM
same,"Concentration, analyte PEA","male, Beagle, dog, 30 min",24 nM
same,"Concentration, analyte PEA","male, Beagle, dog, 60 min",21 nM
same,% Remaining of Initial (n = 1),"male, Beagle, dog, s9, 0 h",100%
same,% Remaining of Initial (n = 1),"male, Beagle, dog, s9, 10 min",70%
same,% Remaining of Initial (n = 1),"male, Beagle, dog, s9, 20 min",61%
same,% Remaining of Initial (n = 1),"male, Beagle, dog, s9, 0.5 h",61%
same,% Remaining of Initial (n = 1),"male, Beagle, dog, s9, 1 h",37%
same,"Concentration, analyte PEA","male, CD-1, mouse, 0 min",0 nM
same,"Concentration, analyte PEA","male, CD-1, mouse, 10 min",0 nM
same,"Concentration, analyte PEA","male, CD-1, mouse, 20 min",0 nM
same,"Concentration, analyte PEA","male, CD-1, mouse, 30 min",0 nM
same,"Concentration, analyte PEA","male, CD-1, mouse, 60 min",0 nM
same,% Remaining of Initial (n = 1),"male, CD-1, mouse, s9, 0 h",100%
same,% Remaining of Initial (n = 1),"male, CD-1, mouse, s9, 10 min",89%
same,% Remaining of Initial (n = 1),"male, CD-1, mouse, s9, 20 min",90%
same,% Remaining of Initial (n = 1),"male, CD-1, mouse, s9, 0.5 h",79%
same,% Remaining of Initial (n = 1),"male, CD-1, mouse, s9, 1 h",78%
same,half-life at 1 μM,"male, CD-1, mouse, s9, Half-life",> 60 min
same,"Concentration, analyte PEA",[1],0 nM
same,"Concentration, analyte PEA",[2],0 nM
same,"Concentration, analyte PEA",[3],0 nM
same,"Concentration, analyte PEA",[4],0 nM
same,"Concentration, analyte PEA",[5],0 nM
same,% Remaining of Initial (n = 1),[6],100%
same,% Remaining of Initial (n = 1),[7],76%
same,% Remaining of Initial (n = 1),[8],74%
same,% Remaining of Initial (n = 1),[9],59%
same,% Remaining of Initial (n = 1),[10],45%
same,half-life at 1 μM,"male, Sprague-Dawley, rat, s9, Half-life",50 min

# — patent publication US11547681B2, “N-acylethanolamide derivatives and uses thereof” (ELIEM THERAPEUTICS, INC., priority 2016, dated 2023)
